Measured values taken from PMC7252619 (PLoS ONE, 2020).
Values joined by “and” are separate entries in the source; they are usually repeats but may differ in a detail not shown here. Equal values may be shown once. Read-outs that look alike come from different tables or passages of the source. One block for each compound: values may come before it.

Legend:
Test in all cases: Kinase activity test (ReactionBiology), % enzyme activity relative to DMSO
Format in all cases: biochemical
DAPK1 = molecular target: T1, DAPK1 (Homo sapiens, UniProt P53355)
T1 construct: purchased ReactionBiology
T1 sequence (P53355 whole entry): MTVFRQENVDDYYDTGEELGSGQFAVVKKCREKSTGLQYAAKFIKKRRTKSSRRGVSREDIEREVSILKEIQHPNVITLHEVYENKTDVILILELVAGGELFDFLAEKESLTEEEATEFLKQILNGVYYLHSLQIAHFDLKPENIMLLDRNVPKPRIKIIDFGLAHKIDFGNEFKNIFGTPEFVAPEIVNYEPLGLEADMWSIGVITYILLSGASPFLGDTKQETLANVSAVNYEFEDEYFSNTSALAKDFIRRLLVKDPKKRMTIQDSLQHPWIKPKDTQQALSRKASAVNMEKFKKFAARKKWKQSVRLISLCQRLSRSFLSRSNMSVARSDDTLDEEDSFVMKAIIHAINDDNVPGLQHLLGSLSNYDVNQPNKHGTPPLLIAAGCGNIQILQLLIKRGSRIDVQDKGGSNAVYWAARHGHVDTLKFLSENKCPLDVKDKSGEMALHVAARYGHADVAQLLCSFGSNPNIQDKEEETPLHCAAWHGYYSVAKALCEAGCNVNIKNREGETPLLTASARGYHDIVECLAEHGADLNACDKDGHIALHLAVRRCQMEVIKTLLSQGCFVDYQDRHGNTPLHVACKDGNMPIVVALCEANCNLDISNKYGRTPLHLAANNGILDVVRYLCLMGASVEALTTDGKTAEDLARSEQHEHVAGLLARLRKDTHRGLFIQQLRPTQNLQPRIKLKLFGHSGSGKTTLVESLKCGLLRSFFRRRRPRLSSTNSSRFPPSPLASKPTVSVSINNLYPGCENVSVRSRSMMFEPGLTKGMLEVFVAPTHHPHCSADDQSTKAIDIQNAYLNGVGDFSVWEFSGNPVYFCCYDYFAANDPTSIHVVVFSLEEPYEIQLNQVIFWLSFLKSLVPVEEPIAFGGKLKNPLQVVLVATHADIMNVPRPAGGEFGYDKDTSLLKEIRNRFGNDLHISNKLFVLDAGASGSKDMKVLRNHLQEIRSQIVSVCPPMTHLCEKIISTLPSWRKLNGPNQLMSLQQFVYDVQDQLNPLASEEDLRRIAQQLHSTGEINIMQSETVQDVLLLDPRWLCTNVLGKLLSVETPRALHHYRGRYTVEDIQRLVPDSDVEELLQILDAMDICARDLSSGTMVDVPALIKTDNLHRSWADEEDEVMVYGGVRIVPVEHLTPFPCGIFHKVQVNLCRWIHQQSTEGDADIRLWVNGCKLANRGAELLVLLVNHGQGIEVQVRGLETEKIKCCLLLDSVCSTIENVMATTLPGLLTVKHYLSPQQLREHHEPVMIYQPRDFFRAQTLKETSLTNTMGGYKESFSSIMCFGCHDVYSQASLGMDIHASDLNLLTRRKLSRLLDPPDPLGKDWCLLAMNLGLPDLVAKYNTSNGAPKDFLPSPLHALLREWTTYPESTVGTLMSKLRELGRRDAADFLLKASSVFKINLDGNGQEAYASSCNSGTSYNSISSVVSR

CDC7 = molecular target: T2, CDC7 (Homo sapiens, UniProt O00311); conditions: CDC7; for % Enzyme Activity (relative to DMSO controls), Data 1: replicate Data 1; for % Enzyme Activity (relative to DMSO controls), Data 2: replicate Data 2;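 on all read-outs here: each drug screened at both 10 µM and 1 µM across a ten-kinase panel, activity expressed as percent of DMSO control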
T2 construct: purchased ReactionBiology
T2 sequence (O00311 whole entry): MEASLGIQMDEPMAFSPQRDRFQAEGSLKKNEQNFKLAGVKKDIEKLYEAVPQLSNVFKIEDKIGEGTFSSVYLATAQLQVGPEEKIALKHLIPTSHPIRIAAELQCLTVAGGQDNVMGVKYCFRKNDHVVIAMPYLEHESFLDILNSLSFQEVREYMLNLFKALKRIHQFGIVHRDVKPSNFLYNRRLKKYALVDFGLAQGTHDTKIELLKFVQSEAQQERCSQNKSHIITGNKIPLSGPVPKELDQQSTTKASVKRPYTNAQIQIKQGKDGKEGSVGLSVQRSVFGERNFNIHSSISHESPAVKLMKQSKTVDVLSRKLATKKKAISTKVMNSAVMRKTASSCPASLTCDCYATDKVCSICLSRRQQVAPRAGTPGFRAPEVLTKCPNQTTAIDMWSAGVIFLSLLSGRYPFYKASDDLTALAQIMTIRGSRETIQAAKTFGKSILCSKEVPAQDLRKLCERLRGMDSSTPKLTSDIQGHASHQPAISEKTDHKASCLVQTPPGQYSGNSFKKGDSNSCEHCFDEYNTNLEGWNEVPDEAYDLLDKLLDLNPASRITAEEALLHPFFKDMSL
T2 sequence (Q9UBU7 whole entry partner): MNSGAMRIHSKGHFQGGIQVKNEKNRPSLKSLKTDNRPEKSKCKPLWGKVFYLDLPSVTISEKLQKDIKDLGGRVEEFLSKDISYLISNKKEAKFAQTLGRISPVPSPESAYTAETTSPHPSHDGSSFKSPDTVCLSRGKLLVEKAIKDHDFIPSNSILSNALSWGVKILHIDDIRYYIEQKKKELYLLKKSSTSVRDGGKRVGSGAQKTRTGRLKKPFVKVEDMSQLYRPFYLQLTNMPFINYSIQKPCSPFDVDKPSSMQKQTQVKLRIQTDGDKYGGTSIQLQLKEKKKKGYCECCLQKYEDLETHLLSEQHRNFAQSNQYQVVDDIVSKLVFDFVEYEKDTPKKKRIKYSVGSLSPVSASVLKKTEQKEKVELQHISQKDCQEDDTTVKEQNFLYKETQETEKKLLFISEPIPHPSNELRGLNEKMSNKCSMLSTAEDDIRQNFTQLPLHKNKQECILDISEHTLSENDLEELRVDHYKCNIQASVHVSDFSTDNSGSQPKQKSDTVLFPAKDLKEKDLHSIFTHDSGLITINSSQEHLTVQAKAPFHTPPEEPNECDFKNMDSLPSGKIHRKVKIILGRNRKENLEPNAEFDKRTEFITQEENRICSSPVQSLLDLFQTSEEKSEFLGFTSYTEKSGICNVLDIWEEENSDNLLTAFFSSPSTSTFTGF

MAP2K2 = molecular target: T3, MAP2K2 (Homo sapiens, UniProt P36507); conditions: MEK2
T3 construct: purchased ReactionBiology
T3 sequence (P36507 whole entry): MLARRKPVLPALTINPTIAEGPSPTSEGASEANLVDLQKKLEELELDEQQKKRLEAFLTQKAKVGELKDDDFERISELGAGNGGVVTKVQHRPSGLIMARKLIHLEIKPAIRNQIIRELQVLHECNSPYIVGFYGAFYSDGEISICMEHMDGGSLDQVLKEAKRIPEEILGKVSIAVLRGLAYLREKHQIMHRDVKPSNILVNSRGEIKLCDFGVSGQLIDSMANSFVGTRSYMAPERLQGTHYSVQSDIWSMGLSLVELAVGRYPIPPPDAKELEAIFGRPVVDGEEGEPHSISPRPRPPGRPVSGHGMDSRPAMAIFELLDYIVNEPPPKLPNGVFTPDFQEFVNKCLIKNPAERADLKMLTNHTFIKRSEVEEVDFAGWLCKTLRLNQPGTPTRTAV

VEGFR2 = VEGFR2 (Homo sapiens, UniProt P35968); parameters: purchased ReactionBiology; conditions: VEGFR2;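 further: VEGFR2 was one member of a ten-kinase screening panel testing marketed FDA-approved drugs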
VEGFR2, sequence (P35968 20-1356): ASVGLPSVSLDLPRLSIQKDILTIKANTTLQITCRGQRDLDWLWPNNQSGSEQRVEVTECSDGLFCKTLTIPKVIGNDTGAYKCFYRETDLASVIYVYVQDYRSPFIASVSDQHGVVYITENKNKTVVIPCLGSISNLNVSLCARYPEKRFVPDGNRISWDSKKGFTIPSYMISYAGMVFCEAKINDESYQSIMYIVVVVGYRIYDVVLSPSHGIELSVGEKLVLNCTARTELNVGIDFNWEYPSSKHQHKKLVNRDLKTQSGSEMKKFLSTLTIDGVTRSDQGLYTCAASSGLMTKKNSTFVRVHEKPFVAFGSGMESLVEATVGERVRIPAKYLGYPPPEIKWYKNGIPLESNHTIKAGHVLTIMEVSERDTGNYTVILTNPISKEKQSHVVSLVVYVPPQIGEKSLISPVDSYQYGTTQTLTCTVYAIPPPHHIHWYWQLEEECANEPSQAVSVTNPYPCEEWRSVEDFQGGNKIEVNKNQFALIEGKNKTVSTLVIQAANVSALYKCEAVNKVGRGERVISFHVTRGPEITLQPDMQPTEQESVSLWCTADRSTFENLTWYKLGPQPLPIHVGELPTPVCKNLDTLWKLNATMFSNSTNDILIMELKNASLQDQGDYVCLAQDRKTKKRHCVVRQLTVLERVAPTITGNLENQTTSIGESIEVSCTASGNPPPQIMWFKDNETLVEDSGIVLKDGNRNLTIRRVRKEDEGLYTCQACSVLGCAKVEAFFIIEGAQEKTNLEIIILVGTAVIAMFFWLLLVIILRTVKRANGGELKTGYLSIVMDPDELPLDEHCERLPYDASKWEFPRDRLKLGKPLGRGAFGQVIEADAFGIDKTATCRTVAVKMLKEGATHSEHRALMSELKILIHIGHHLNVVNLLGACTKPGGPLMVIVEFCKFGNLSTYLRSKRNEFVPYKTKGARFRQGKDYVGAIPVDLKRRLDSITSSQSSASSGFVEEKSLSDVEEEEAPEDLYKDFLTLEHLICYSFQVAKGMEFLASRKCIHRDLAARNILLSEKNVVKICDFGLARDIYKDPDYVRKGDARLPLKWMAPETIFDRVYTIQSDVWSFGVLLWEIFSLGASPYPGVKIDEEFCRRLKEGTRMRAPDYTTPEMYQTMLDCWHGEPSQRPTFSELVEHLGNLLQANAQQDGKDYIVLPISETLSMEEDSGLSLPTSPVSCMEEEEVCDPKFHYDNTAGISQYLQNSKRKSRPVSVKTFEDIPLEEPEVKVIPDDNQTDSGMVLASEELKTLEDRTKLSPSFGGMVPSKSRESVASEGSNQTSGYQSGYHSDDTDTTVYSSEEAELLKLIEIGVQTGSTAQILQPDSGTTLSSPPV

MST-4 = molecular target: T4, MST-4 (Homo sapiens, UniProt Q9P289); conditions: MST4; for % Enzyme Activity (relative to DMSO controls), Data 1: replicate Data 1; for % Enzyme Activity (relative to DMSO controls), Data 2: replicate Data 2;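 on all read-outs here: marketed FDA-approved drugs screened at 10 µM and 1 µM against a ten-kinase panel, remaining activity given as percent of DMSO controls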
T4 construct: purchased ReactionBiology
T4 sequence (Q9P289 whole entry): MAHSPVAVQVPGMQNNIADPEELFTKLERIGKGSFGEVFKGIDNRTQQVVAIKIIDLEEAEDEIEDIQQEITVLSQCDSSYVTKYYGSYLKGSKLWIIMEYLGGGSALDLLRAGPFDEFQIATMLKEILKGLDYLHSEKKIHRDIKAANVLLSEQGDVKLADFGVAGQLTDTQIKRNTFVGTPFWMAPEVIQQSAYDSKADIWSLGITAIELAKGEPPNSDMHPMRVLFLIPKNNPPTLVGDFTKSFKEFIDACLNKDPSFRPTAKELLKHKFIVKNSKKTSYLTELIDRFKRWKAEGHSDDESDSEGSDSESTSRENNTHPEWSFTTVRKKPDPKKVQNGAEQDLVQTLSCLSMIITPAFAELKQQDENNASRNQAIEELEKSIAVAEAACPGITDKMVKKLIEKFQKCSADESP

NEK2 = molecular target: T5, NEK2 (Homo sapiens, UniProt P51955); conditions: NEK2;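 further: FDA-approved drugs chosen by structure-based repositioning, each screened at 10 or 1 µM for kinase activity, expressed as percent of DMSO controls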
T5 construct: purchased ReactionBiology
T5 sequence (P51955 1-445): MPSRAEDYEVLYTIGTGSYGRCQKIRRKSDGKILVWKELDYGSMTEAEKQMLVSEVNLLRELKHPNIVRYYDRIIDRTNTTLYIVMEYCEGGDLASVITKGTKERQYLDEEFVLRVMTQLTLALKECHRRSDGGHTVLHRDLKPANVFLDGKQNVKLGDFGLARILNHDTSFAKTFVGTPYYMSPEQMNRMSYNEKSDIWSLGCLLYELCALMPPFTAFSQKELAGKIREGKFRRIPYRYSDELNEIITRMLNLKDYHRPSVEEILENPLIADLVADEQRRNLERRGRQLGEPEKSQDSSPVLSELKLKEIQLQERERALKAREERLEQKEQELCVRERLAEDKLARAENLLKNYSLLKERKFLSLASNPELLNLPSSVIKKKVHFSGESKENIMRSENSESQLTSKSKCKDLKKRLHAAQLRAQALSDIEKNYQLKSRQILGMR

[1] = 1 uM, Average, read-out: % Enzyme Activity (relative to DMSO controls), Average
[2] = 1 uM, replicate Data 1, read-out: % Enzyme Activity (relative to DMSO controls), Data 1
[3] = 1 uM, replicate Data 2, read-out: % Enzyme Activity (relative to DMSO controls), Data 2
[4] = 10 uM, Average, read-out: % Enzyme Activity (relative to DMSO controls), Average
[5] = 10 uM, replicate Data 1, read-out: % Enzyme Activity (relative to DMSO controls), Data 1
[6] = 10 uM, replicate Data 2, read-out: % Enzyme Activity (relative to DMSO controls), Data 2

Compound: CN(C)CCCN1c2ccccc2Sc2ccc(Cl)cc21 [Chlorpromazine]
% Enzyme Activity (relative to DMSO controls), Average (MAP2K2; 1 uM, Average): 103.60% | % Enzyme Activity (relative to DMSO controls), Data 1 (MAP2K2; 1 uM, replicate Data 1): 103.14% | % Enzyme Activity (relative to DMSO controls), Data 2 (MAP2K2; 1 uM, replicate Data 2): 104.05% | % Enzyme Activity (relative to DMSO controls), Average (MAP2K2; 10 uM, Average): 101.38% | % Enzyme Activity (relative to DMSO controls), Data 1 (MAP2K2; 10 uM, replicate Data 1): 102.43% | % Enzyme Activity (relative to DMSO controls), Data 2 (MAP2K2; 10 uM, replicate Data 2): 100.33% | % Enzyme Activity (relative to DMSO controls), Average (VEGFR2; 1 uM, Average): 105.46% | % Enzyme Activity (relative to DMSO controls), Data 1 (VEGFR2; 1 uM, replicate Data 1): 101.88% | % Enzyme Activity (relative to DMSO controls), Data 2 (VEGFR2; 1 uM, replicate Data 2): 109.04% | % Enzyme Activity (relative to DMSO controls), Average (VEGFR2; 10 uM, Average): 105.67% | % Enzyme Activity (relative to DMSO controls), Data 1 (VEGFR2; 10 uM, replicate Data 1): 105.24% | % Enzyme Activity (relative to DMSO controls), Data 2 (VEGFR2; 10 uM, replicate Data 2): 106.1%

Compound: Oc1ccc(O)cc1 [Hydroquinone]
% Enzyme Activity (relative to DMSO controls), Average (DAPK1): 106.84% and 99.20% | % Enzyme Activity (relative to DMSO controls), Data 1 (DAPK1): 112.42% and 95.43% | % Enzyme Activity (relative to DMSO controls), Data 2 (DAPK1): 101.25% and 102.97% | % Enzyme Activity (relative to DMSO controls), Average (VEGFR2; 1 uM, Average): 108.33% | % Enzyme Activity (relative to DMSO controls), Data 1 (VEGFR2; 1 uM, replicate Data 1): 107.95% | % Enzyme Activity (relative to DMSO controls), Data 2 (VEGFR2; 1 uM, replicate Data 2): 108.7% | % Enzyme Activity (relative to DMSO controls), Average (VEGFR2; 10 uM, Average): 108.92% | % Enzyme Activity (relative to DMSO controls), Data 1 (VEGFR2; 10 uM, replicate Data 1): 109.26% | % Enzyme Activity (relative to DMSO controls), Data 2 (VEGFR2; 10 uM, replicate Data 2): 108.57% | % Enzyme Activity (relative to DMSO controls), Average (MST-4; 1 uM): 86.76% | % Enzyme Activity (relative to DMSO controls), Data 1 (MST-4; 1 uM): 90.83% | % Enzyme Activity (relative to DMSO controls), Data 2 (MST-4; 1 uM): 82.69% | % Enzyme Activity (relative to DMSO controls), Average (MST-4; 10 uM): 89.91% | % Enzyme Activity (relative to DMSO controls), Data 1 (MST-4; 10 uM): 90.73% | % Enzyme Activity (relative to DMSO controls), Data 2 (MST-4; 10 uM): 89.08%

Compound: C[C@H](O)[C@H](O)[C@H]1CNc2nc(N)[nH]c(=O)c2N1 [Sapropterin]
% Enzyme Activity (relative to DMSO controls), Average (VEGFR2; 1 uM, Average): 98.99% | % Enzyme Activity (relative to DMSO controls), Data 1 (VEGFR2; 1 uM, replicate Data 1): 101.37% | % Enzyme Activity (relative to DMSO controls), Data 2 (VEGFR2; 1 uM, replicate Data 2): 96.61% | % Enzyme Activity (relative to DMSO controls), Average (VEGFR2; 10 uM, Average): 98.14% | % Enzyme Activity (relative to DMSO controls), Data 1 (VEGFR2; 10 uM, replicate Data 1): 98.48% | % Enzyme Activity (relative to DMSO controls), Data 2 (VEGFR2; 10 uM, replicate Data 2): 97.79% | % Enzyme Activity (relative to DMSO controls), Average (NEK2; 1 uM, Average): 93.31% | % Enzyme Activity (relative to DMSO controls), Data 1 (NEK2; 1 uM, replicate Data 1): 92.46% | % Enzyme Activity (relative to DMSO controls), Data 2 (NEK2; 1 uM, replicate Data 2): 94.15% | % Enzyme Activity (relative to DMSO controls), Average (NEK2; 10 uM, Average): 93.52% | % Enzyme Activity (relative to DMSO controls), Data 1 (NEK2; 10 uM, replicate Data 1): 92.39% | % Enzyme Activity (relative to DMSO controls), Data 2 (NEK2; 10 uM, replicate Data 2): 94.64% | % Enzyme Activity (relative to DMSO controls), Average (MST-4; 1 uM): 87.71% | % Enzyme Activity (relative to DMSO controls), Data 1 (MST-4; 1 uM): 88.88% | % Enzyme Activity (relative to DMSO controls), Data 2 (MST-4; 1 uM): 86.54% | % Enzyme Activity (relative to DMSO controls), Average (MST-4; 10 uM): 87.19% | % Enzyme Activity (relative to DMSO controls), Data 1 (MST-4; 10 uM): 96.6% | % Enzyme Activity (relative to DMSO controls), Data 2 (MST-4; 10 uM): 77.78%

Results, then the compound that gave them:

% Enzyme Activity (relative to DMSO controls), Average (DAPK1; DAPK1, 1 uM, Average): 99.82% | % Enzyme Activity (relative to DMSO controls), Data 1 (DAPK1; DAPK1, 1 uM, replicate Data 1): 95.51% | % Enzyme Activity (relative to DMSO controls), Data 2 (DAPK1; DAPK1, 1 uM, replicate Data 2): 104.12% | % Enzyme Activity (relative to DMSO controls), Average (DAPK1; DAPK1, 10 uM, Average): 92.04% | % Enzyme Activity (relative to DMSO controls), Data 1 (DAPK1; DAPK1, 10 uM, replicate Data 1): 94.13% | % Enzyme Activity (relative to DMSO controls), Data 2 (DAPK1; DAPK1, 10 uM, replicate Data 2): 89.94% | % Enzyme Activity (relative to DMSO controls), Average (CDC7; 1 uM): 74.98% | % Enzyme Activity (relative to DMSO controls), Data 1 (CDC7; 1 uM): 77.59% | % Enzyme Activity (relative to DMSO controls), Data 2 (CDC7; 1 uM): 72.36% | % Enzyme Activity (relative to DMSO controls), Average (CDC7; 10 uM): 84.55% | % Enzyme Activity (relative to DMSO controls), Data 1 (CDC7; 10 uM): 84.43% | % Enzyme Activity (relative to DMSO controls), Data 2 (CDC7; 10 uM): 84.67%
Compound: CC(C)C[C@H](NC(=O)[C@H](Cc1ccccc1)NC(=O)c1cnccn1)B(O)O [Bortezomib]

remaining activity at 1 µM (MAP2K2; [1]): 100% | remaining activity at 1 µM (MAP2K2; [2]): 101% | remaining activity at 1 µM (MAP2K2; [3]): 99.3% | remaining activity at 10 µM (MAP2K2; [4]): 94.3% | remaining activity at 10 µM (MAP2K2; [5]): 96.2% | remaining activity at 10 µM (MAP2K2; [6]): 92.4% | remaining activity at 1 µM (VEGFR2; [1]): 97.9% | remaining activity at 1 µM (VEGFR2; [2]): 100% | remaining activity at 1 µM (VEGFR2; [3]): 95.6% | remaining activity at 10 µM (VEGFR2; [4]): 99.7% | remaining activity at 10 µM (VEGFR2; [5]): 99.4% | remaining activity at 10 µM (VEGFR2; [6]): 100% | remaining activity at 1 µM (NEK2; [1]): 92.4% | remaining activity at 1 µM (NEK2; [2]): 89.3% | remaining activity at 1 µM (NEK2; [3]): 95.5% | remaining activity at 10 µM (NEK2; [4]): 86.5% | remaining activity at 10 µM (NEK2; [5]): 82.7% | remaining activity at 10 µM (NEK2; [6]): 90.3%
Compound: N[C@@H](CC(=O)N1CCn2c(nnc2C(F)(F)F)C1)Cc1cc(F)c(F)cc1F [Sitagliptin]

% Enzyme Activity (relative to DMSO controls), Average (MST-4; 1 uM): 61.30% | % Enzyme Activity (relative to DMSO controls), Data 1 (MST-4; 1 uM): 64.87% | % Enzyme Activity (relative to DMSO controls), Data 2 (MST-4; 1 uM): 57.73% | % Enzyme Activity (relative to DMSO controls), Average (MST-4; 10 uM): 101.79% | % Enzyme Activity (relative to DMSO controls), Data 1 (MST-4; 10 uM): 93.77% | % Enzyme Activity (relative to DMSO controls), Data 2 (MST-4; 10 uM): 109.8%
Compound: O=C(CCCCCCC(=O)Nc1ccccc1)NO [Vorinostat]
